Calls of active or inactive are those of the source.
test system: not listed separately; experiment: HEp-2 cell cytotoxicity, dose response, cytotoxicity control for RSV inhibitor project, HTS (AID 2410); format: functional; details: human respiratory syncytial virus

| SMILES | CC50 |
| --- | --- |
| Cc1nc(SCc2ccccc2F)c2cnn(-c3ccccc3)c2n1 | 28.5 µM (active) |
| N#Cc1nc(COc2ccccc2Cl)oc1N1CCCC1 | 41.5 µM (active) |
| COc1ccccc1NC(=O)COc1ccc(Br)cc1CO | > 50 µM (active) |
| CCc1ccccc1NS(=O)(=O)c1ccc(OC)c2ncccc12 | 16 µM (active) |
| Cc1nc2ccc3nc(NC(=O)C4COc5ccccc5O4)sc3c2s1 (configuration not stated) | 41.4 µM (active) |
| CCOc1ccc(NC2c3ccccc3C(=O)N2Cc2ccc3c(c2)OCO3)cc1 (configuration not stated) | 14.6 µM (active) |
| CCOc1ccccc1C1CC(c2cccc(NS(C)(=O)=O)c2)=NN1C(=O)c1ccccc1 (configuration not stated) | 35.5 µM (active) |
| CC(C)(C)NC(=O)C(c1ccncc1)N(Cc1ccc(F)cc1)C(=O)c1ccc(-c2ccccc2)[nH]1 (configuration not stated) | 14.6 µM (active) |
| Cc1c(OCC(=O)NCc2ccccn2)ccc2c3c(c(=O)oc12)CCCC3 | 21.2 µM (active) |
| Cc1ccc2sc(O)nc2c1 | 19.7 µM (active) |
| Cc1ccc(-c2ccc(/C=N/n3cnnc3)o2)cc1Cl | 49.7 µM (active) |
| CCN(CC)Cc1c(C(=O)N/N=C/c2cccc(OCc3cccc(Cl)c3)c2)nnn1-c1nonc1N | 18.3 µM (active) |

target: T1, RNA-binding protein pos-1 (Caenorhabditis elegans, UniProt G5EF15); experiment: inhibitors of POS-1/mex-3 RNA binding, dose response, biochemical, fluorescence polarization (AID 1964); details: not given;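 note: purified POS-1 fused to maltose binding protein made in E. coli; potency of compounds blocking POS-1 binding to fluorescent RNA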
T1 sequence (G5EF15 whole entry): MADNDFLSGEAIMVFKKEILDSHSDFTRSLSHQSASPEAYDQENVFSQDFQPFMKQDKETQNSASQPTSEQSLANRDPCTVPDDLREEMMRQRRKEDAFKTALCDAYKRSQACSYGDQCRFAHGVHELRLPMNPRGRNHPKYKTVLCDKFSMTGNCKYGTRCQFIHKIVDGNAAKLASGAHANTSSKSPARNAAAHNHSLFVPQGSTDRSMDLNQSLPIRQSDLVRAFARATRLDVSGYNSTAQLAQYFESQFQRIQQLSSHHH

| EC50 | SMILES |
| --- | --- |
| 61.7 µM (active) | NC(=O)[C@@H]1CCCN1Cc1c(C(=O)N2CCc3ccccc3C2)nc2ccc(Cl)cn12 |

target: T2, Zinc finger protein mex-5 (Caenorhabditis elegans, UniProt Q9XUB2); experiment: MEX-5/TCR-2 RNA interaction inhibitors, dose response, biochemical, C. elegans, fluorescence polarization (AID 1960); details: not given
T2 sequence (Q9XUB2 whole entry): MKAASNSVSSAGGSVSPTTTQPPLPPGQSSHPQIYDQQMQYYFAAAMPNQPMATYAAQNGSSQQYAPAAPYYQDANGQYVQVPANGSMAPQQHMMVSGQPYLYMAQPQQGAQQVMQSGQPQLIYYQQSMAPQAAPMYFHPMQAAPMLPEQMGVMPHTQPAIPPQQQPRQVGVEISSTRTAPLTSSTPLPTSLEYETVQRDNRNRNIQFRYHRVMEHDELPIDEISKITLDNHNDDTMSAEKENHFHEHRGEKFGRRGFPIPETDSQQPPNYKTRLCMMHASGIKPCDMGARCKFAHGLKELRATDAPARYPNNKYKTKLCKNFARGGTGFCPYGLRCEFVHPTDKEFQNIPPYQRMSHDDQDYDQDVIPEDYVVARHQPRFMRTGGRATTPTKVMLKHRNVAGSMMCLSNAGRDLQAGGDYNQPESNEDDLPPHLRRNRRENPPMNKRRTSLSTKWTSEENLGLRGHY

| EC50 | SMILES |
| --- | --- |
| 47 µM (active) | NC(=O)[C@@H]1CCCN1Cc1c(C(=O)N2CCc3ccccc3C2)nc2ccc(Cl)cn12 |

test system: not listed separately; experiment: inhibitors of intracellular T. cruzi replication, confirmation, NIH3T3 host cells, beta-gal luminescence (AID 2044); format: functional, cell-based; details: not given;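 note: intracellular parasites grown in NIH/3T3 mouse fibroblasts as host cells; luminescent beta-galactosidase reporter signal from transgenic T. cruzi replicating inside host cells; inhibitors lower the luminescence signal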

| SMILES | EC50 |
| --- | --- |
| CC(C)(C)NC(=O)C(c1ccncc1)N(Cc1ccc(F)cc1)C(=O)c1ccc(-c2ccccc2)[nH]1 (configuration not stated) | 0.681 µM (active) |

test system: not listed separately; experiment: cytotoxicity toward NIH3T3 fibroblasts, dose response, counter-screen, cell-based, ATP luminescence, mouse fibroblasts (AID 2010); format: functional; details: not given;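 note: cells exposed to compound for about 90 hours before reading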

| SMILES | EC50 |
| --- | --- |
| CC(C)(C)NC(=O)C(c1ccncc1)N(Cc1ccc(F)cc1)C(=O)c1ccc(-c2ccccc2)[nH]1 (configuration not stated) | > 60 µM (inconclusive) |

target: T3, Heat shock factor protein 1 (Mus musculus, UniProt P38532); experiment: HSF1 potentiators in luciferase reporter cells, confirmation, cell-based, NIH3T3, luminescence, dose retest (AID 435004); format: functional; details: not given;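 note: stress induced by proteasome inhibitor MG132 added 30 min after compound; luciferase reporter driven by HSF1 response element in NIH3T3 cells; actives raise luminescence as potentiators of the MG132 stress response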
T3 sequence (P38532 whole entry): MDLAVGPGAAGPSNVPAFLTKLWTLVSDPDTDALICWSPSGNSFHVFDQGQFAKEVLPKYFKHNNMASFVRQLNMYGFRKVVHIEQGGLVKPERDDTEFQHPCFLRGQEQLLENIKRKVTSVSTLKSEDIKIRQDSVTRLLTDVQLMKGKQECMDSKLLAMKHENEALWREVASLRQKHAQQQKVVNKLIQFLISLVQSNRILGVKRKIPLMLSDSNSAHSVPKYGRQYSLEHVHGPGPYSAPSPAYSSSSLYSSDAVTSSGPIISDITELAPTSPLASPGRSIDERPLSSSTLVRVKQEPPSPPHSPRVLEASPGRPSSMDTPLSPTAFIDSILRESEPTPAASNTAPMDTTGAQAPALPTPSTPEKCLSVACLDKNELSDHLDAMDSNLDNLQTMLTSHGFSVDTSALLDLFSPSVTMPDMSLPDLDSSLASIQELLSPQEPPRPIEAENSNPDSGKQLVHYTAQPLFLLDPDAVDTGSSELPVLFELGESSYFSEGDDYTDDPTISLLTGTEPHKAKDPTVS

| EC50 | SMILES |
| --- | --- |
| > 260 µM (inactive) | Cc1cc(C)c(S(=O)(=O)n2ccc(-c3ccc(OCCN(C)c4ccccn4)cc3)n2)c(C)c1 |

target: Cytochrome P450 2C19 (Homo sapiens, UniProt P33261); experiment: Cytochrome panel assay with activity outcomes. Panel member name: p450-cyp2c19 Compounds with AC50 equal or less than 10 uM are considered active; format: functional; details: read-out: AC50
Sequence (P33261 whole entry): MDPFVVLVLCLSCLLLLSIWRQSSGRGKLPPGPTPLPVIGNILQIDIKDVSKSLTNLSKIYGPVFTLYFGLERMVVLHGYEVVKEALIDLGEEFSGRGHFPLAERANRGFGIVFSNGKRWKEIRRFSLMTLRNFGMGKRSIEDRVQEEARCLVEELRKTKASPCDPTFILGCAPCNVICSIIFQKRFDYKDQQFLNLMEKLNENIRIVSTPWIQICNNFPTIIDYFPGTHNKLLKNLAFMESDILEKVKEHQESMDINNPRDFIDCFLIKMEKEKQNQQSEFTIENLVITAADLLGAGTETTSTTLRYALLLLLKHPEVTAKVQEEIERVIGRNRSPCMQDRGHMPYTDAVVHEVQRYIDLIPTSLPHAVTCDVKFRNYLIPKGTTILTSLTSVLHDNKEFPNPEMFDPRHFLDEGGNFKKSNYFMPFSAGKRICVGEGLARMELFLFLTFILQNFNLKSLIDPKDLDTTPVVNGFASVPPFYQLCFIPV

| AC50 | SMILES |
| --- | --- |
| 39.8 µM (inconclusive) | COC(=O)N1CCC[C@@]2(CCN(c3ccccn3)C2)C1 |
| 39.8 µM (inconclusive) | COc1ccccc1Cn1c(=S)[nH]c2cc(C(=O)N3CCN(C)CC3)ccc2c1=O |
| 0.631 µM (inconclusive) | Cc1cc(C)c(S(=O)(=O)n2ccc(-c3ccc(OCCN(C)c4ccccn4)cc3)n2)c(C)c1 |
| 14.1 µM (inconclusive) | CCCS(=O)(=O)N1CCCC(C(=O)NCCCN2CCN(c3cccc(Cl)c3)CC2)C1 (configuration not stated) |

target: T4, Cytochrome P450 1A2 (Homo sapiens, UniProt P05177); details: not given;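 note: PubChem cytochrome P450 panel assay, CYP1A2 panel member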
T4 sequence (P05177 whole entry): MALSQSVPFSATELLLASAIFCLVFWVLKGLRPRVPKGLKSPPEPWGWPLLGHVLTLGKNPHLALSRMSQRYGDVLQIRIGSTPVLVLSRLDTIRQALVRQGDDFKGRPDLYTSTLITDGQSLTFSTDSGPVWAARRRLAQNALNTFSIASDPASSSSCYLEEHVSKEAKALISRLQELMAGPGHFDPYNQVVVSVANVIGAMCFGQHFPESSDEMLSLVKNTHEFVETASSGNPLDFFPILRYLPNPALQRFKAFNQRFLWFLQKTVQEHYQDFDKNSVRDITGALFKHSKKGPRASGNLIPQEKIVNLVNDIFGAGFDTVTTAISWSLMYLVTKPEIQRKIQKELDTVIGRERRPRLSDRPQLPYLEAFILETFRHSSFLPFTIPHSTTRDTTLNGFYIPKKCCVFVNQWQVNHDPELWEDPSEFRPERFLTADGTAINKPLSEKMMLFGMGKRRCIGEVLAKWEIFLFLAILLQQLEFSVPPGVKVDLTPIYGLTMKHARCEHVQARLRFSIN

| AC50 | SMILES |
| --- | --- |
| 14.1 µM (inconclusive) | Cc1cc(C)c(S(=O)(=O)n2ccc(-c3ccc(OCCN(C)c4ccccn4)cc3)n2)c(C)c1 |
| 0.00631 µM (inconclusive) | CCCS(=O)(=O)N1CCCC(C(=O)NCCCN2CCN(c3cccc(Cl)c3)CC2)C1 (configuration not stated) |

target: Cytochrome P450 2C9 (Homo sapiens, UniProt P11712); details: not given
Sequence (P11712 whole entry): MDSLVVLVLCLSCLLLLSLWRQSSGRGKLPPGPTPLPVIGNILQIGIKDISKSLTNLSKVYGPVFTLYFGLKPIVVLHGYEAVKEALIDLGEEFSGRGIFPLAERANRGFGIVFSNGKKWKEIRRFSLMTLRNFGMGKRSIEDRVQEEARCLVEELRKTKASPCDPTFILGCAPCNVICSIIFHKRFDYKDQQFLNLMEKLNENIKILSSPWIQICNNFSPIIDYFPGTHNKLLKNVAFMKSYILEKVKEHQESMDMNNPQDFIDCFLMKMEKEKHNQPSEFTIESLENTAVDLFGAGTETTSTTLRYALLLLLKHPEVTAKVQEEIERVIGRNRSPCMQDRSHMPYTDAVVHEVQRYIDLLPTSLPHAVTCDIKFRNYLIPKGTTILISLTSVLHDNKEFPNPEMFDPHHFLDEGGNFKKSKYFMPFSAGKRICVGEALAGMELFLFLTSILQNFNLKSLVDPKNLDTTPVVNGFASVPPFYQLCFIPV

| AC50 | SMILES |
| --- | --- |
| 20 µM (inconclusive) | COC(=O)N1CCC[C@@]2(CCN(c3ccccn3)C2)C1 |
| 0.112 µM (inconclusive) | COc1ccccc1Cn1c(=S)[nH]c2cc(C(=O)N3CCN(C)CC3)ccc2c1=O |
| 1.78 µM (inconclusive) | Cc1cc(C)c(S(=O)(=O)n2ccc(-c3ccc(OCCN(C)c4ccccn4)cc3)n2)c(C)c1 |
| 28.2 µM (inconclusive) | CCCS(=O)(=O)N1CCCC(C(=O)NCCCN2CCN(c3cccc(Cl)c3)CC2)C1 (configuration not stated) |
